Patent US8865715B2, “Substituted 7-(1,2,3-Triazol-4-yl)-pyrrolo[2,3-b]pyrazines” (Merck Patent GmbH, priority 2010, dated 2014)

Key:
Format in all cases: biochemical
[1] = biological target: T1, TANK binding kinase (TBK1) (Homo sapiens, UniProt Q9UHD2); assay: TBK1-kinase test, 384-well flashplate assay
T1 sequence (Q9UHD2 1-729): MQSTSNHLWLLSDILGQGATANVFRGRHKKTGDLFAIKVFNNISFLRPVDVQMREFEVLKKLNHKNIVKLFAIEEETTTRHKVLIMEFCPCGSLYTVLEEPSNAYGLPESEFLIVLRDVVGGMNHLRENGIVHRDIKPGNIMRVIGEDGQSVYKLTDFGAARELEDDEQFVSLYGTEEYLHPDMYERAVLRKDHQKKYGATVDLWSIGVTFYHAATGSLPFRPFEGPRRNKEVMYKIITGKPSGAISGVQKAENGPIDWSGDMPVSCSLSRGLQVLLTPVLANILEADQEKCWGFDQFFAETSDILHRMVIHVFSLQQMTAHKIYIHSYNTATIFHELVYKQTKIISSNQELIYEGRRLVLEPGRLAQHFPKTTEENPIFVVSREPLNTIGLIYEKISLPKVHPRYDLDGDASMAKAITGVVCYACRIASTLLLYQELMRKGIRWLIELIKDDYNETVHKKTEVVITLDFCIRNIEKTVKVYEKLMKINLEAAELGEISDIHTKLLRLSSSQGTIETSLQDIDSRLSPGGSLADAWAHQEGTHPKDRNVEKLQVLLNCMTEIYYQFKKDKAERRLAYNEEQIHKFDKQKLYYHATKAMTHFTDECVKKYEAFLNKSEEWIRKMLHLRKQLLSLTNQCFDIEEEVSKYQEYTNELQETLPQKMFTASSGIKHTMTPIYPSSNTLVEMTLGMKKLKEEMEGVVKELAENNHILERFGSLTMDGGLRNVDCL
Method: The kinase assay is performed as 384-well flashplate assay. 0.6 nM TANK binding kinase (TBK1), 800 nM biotinylated MELK-derived peptide (biotin-Ah-Ah-[…]) and 10 μM ATP (with 0.25 μCi of ^33P-ATP/well) are incubated in a total volume of 50 μl (10 mM MOPS, 10 mM magnesium acetate, 0.1 mM EGTA, 1 mM DTT, 0.02% of Brij35, 0.1% of BSA, pH 7.5) with or without test substance at 30° C. for 120 min. The reaction is stopped using […] of 200 mM EDTA solution, filtered off with suction after 30 min at room temperature, and the wells are washed 3 times with 100 μl of 0.9% NaCl solution. The non-specific proportion of the kinase reaction (blank) is determined using 100 nM staurosporine. Radioactivity is measured in the Topcount. IC50 values are calculated using RS1.

IKKε = biological target: T2, IKKε (Homo sapiens, UniProt Q14164); assay: IKKε-kinase test (IKKepsilon), 384-well flashplate assay
T2 sequence (Q14164 1-716): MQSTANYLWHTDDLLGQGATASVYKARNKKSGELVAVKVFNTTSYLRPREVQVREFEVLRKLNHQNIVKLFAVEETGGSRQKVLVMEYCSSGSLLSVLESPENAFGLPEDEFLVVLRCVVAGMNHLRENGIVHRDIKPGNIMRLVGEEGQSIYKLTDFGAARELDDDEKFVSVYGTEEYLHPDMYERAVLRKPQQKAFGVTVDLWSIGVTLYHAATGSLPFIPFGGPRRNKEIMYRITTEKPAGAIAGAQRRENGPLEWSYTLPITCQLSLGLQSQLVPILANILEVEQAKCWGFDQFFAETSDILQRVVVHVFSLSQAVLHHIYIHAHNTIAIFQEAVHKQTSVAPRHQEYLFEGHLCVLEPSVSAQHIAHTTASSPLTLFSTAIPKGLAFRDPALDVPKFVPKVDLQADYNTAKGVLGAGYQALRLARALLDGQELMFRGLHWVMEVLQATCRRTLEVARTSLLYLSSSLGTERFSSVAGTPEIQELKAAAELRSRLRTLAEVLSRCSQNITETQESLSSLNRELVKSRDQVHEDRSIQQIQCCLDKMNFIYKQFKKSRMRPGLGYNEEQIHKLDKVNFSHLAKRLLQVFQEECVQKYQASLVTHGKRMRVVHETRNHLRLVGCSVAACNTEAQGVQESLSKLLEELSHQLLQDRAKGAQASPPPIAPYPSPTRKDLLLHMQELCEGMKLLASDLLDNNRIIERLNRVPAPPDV
Method: IKKε-Kinase Test (IKKepsilon)
The kinase assay is performed as 384-well flashplate assay. 1 nM IKKε, 800 nM biotinylated IκBα(19-42) peptide (biotin-C6-C6-[…]) and 10 μM ATP (with 0.3 μCi of ^33P-ATP/well) are incubated in a total volume of 50 μl (10 mM MOPS, 10 mM magnesium acetate, 0.1 mM EGTA, 1 mM dithiothreitol, 0.02% of Brij35, 0.1% of BSA, 0.1% of BioStab, pH 7.5) with or without test substance at 30° C. for 120 min. The reaction is stopped using […] of 200 mM EDTA solution, filtered off with suction after 30 min at room temperature, and the wells are washed 3 times with 100 μl of 0.9% NaCl solution. The non-specific proportion of the kinase reaction (blank) is determined using 3 μM EMD 1126352 (BX-795). Radioactivity is measured in the Topcount. IC50 values are calculated using RS1.

PDK1 = biological target: T3, PDK1 (Homo sapiens, UniProt O15530); assay: Test for the inhibition of PDK1 (384-well flashplate, 33P-ATP)
T3 construct: His6 (N)
T3 sequence (O15530 51-556 limits assumed): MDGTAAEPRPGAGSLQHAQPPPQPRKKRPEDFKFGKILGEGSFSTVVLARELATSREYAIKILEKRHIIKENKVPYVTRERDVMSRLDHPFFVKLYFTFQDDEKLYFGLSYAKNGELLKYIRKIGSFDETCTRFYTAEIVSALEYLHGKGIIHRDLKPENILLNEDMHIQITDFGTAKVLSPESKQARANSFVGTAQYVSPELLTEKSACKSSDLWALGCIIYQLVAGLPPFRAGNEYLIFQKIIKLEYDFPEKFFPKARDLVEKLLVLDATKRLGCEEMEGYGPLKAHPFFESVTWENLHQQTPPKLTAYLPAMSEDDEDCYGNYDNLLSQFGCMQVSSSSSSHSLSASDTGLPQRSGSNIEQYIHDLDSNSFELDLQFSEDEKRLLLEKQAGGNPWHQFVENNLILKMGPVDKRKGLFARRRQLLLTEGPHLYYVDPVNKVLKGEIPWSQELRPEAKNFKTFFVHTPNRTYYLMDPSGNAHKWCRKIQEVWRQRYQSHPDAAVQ
Method: 4.0 Test for the Inhibition of PDK1
The experimental batches are carried out in a flashplate system with 384 wells/microtitration plate.
In each case, the PDK1 sample His6-PDK1(1-50) (3.4 nM), the PDK1 substrate biotin-bA-bA-[…] (400 nM), 4 μM ATP (with 0.2 μCi of ^33P-ATP/well) and the test substance in 50 μl of conventional experimental solution per well are incubated at 30° C. for 60 min. The test substances are employed in corresponding concentrations (if desired in a dilution series). The control is carried out without test substance. The reaction is stopped using standard methods and washed. The activity of the kinase is measured via the incorporated radioactivity in top count. In order to determine the non-specific kinase reaction (blank value), the experimental batches are carried out in the presence of 100 nM staurosporine.
The radioactivity (decompositions per minute) of the blank value (no use of test substance in the presence of staurosporine) is subtracted from all other radioactivity values. The controls (kinase activity without test substance) are set equal to 100 percent and all other radioactivity values (after subtracting the blank value) are expressed set in relation thereto (for example in % of the control).
IC50 values (50% inhibition) are determined with the aid of statistics programmes, such as, for example, RS1.

Compound: Cn1cc(-c2cnc3[nH]cc(-c4cn(C(CCN5CCCC5)c5ccccc5)nn4)c3n2)cn1 (centres unmarked) [Compound A11, 7-[1-(3-Pyrrolidin-1-yl-1-phenylpropyl)-1H-1,2,3-triazol-4-yl]-2-(1-methyl-1H-pyrazol-4-yl)-5H-pyrrolo[2,3-b]pyrazine]
- IC50 [1]: 0.0005 to 1 µM
- IC50 (IKKε): 0.0005 to 1 µM
- IC50 (PDK1): 0.0005 to 1 µM

Compound: Cn1cc(-c2cnc3[nH]cc(-c4cn(Cc5ccc(F)cc5)nn4)c3n2)cn1 [Compound A10]
- IC50 [1]: 0.0005 to 1 µM
- IC50 (IKKε): 0.0005 to 1 µM
- IC50 (PDK1): 0.0005 to 1 µM

Compound: Cn1cc(-c2cnc3[nH]cc(-c4cn(Cc5ccccc5)nn4)c3n2)cn1 [Compound A2, 7-(1-benzyl-1H-1,2,3-triazol-4-yl)-2-(1-methyl-1H-pyrazol-4-yl)-5H-pyrrolo[2,3-b]pyrazine]
- IC50 [1]: 0.0005 to 1 µM
- IC50 (IKKε): 0.0005 to 1 µM
- IC50 (PDK1): 0.0005 to 1 µM

Compound: Cn1cc(-c2cnc3[nH]cc(-c4cn(Cc5cccc(F)c5F)nn4)c3n2)cn1 [Compound A7]
- IC50 [1]: 0.0005 to 1 µM
- IC50 (IKKε): 0.0005 to 1 µM
- IC50 (PDK1): 0.0005 to 1 µM

Compound: Cn1cc(-c2cnc3[nH]cc(-c4cn(Cc5cccc(F)c5)nn4)c3n2)cn1 [Compound A3]
- IC50 [1]: 0.0005 to 1 µM
- IC50 (IKKε): 0.0005 to 1 µM
- IC50 (PDK1): 0.0005 to 1 µM

Compound: Cn1cc(-c2cnc3[nH]cc(-c4cn(Cc5ccccc5F)nn4)c3n2)cn1 [Compound A12]
- IC50 [1]: 0.0005 to 1 µM
- IC50 (PDK1): 0.0005 to 1 µM

Compound: Cn1cc(-c2cnc3[nH]cc(-c4cn(Cc5ccccc5Cl)nn4)c3n2)cn1 [Compound A5]
- IC50 [1]: 0.0005 to 1 µM
- IC50 (IKKε): 0.0005 to 1 µM
- IC50 (PDK1): 0.0005 to 1 µM

Compound: c1ccc(Cn2cc(-c3c[nH]c4nccnc34)nn2)cc1 [Compound A1, 7-(1-benzyl-1H-1,2,3-triazol-4-yl)-5H-pyrrolo[2,3-b]pyrazine]
- IC50 [1]: 1 to 10 µM
- IC50 (IKKε): 1 to 10 µM
- IC50 (PDK1): 1 to 10 µM

Compound: Cn1cc(-c2cnc3[nH]cc(-c4cn(Cc5ccccc5C#N)nn4)c3n2)cn1 [Compound A4]
- IC50 [1]: 0.0005 to 1 µM
- IC50 (IKKε): 0.0005 to 1 µM
- IC50 (PDK1): 0.0005 to 1 µM
